Common to all, as to assay: growth of human tumour cells (NCI), 48 h
Assay [1] deals with ACHN renal.
Assay [2] concerns HL-60(TB) leukemia.
Assay [3] relates to KM12 colon.
For assay [4], the system named is LOX IMVI melanoma.
The subject of assay [5] is NCI/ADR-RES ovarian.
The test system of assay [6] is OVCAR-5 ovarian.
For assay [7], the system named is OVCAR-8 ovarian.
Assay [8] has as its system TK-10 renal.
Assay [9] has as its system UO-31 renal.
Assay [10] deals with IGROV1 ovarian.

The source of these data is PubChem BioAssay (NCI).

SMILES strings stand for the structures. “And” between values parts separate entries of the source, which are not always exact repeats. Equal values may be shown once.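 Following 48 hours of exposure in 96-well plates, responses at five concentrations were used to interpolate endpoints linearly. Abbreviation: GI50, concentration required for 50% inhibition of growth. TGI: total growth inhibition.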

With `C=C(CNC(=O)Nc1ccc(-c2ccccc2)cc1)c1ccc(C(=O)Nc2ccccc2N)cc1`, the GI50 was above 100 µM in assay [1]; 89.7 µM in [2]; 10.8 µM in assay [3]; above 100 µM in assay [4]; 58.3 µM in assay [5]; above 100 µM in assay [6]. The GI50 is 58.9 µM in assay [7], above 100 µM in assay [8] and above 100 µM in assay [9]. In addition, the TGI in assay [1], in assay [2], in assay [3], in assay [4], in assay [5] and in assay [6] was above 100 µM throughout. Also, the TGI in [7], in [8] and in assay [9] was above 100 µM throughout.

For `N#Cc1cc(C#N)c(Cl)nc1N`, the TGI in [1], in [2], in assay [10], in assay [3], in assay [4] and in [5] was above 10 µM throughout. Further, the TGI in [7], in [8] and in assay [9] was above 10 µM throughout.

As to `COc1cc(/C(Cl)=C/C=C/C(=O)c2c(C)[n+]([O-])c3ccc(Cl)cc3[n+]2[O-])cc(OC)c1OC`, the GI50 in [1] was 5.15 µM; in [10], 3.78 µM; in [3], 5.07 µM; in assay [4] it was 1.77 µM; in assay [5], 1.97 µM; in [6] it was 13 µM. Also, the GI50 in assay [7] was 3.09 µM; in [9] it was 2.63 µM. The TGI in assay [1] is 11.6 µM; in [10] it was 13.2 µM; in assay [3], above 50 µM; in assay [4], 7.54 µM; in [5], above 50 µM; in [6], 33.2 µM. Besides, the values for the TGI in [7] and in [9] were above 50 µM and 18.7 µM, respectively.

As for `CC(C)(C)OC(=O)NCCNC1=CC(=O)c2nc3ccccc3c3ccnc1c23`, the GI50 in [1] is 21.5 µM; in assay [2], 12.2 µM; in assay [10], 24.6 µM; in [3], 22.7 µM; in assay [5], 23.3 µM; in assay [6] it was 28 µM. Besides, the GI50 in [7] was 16.6 µM; in assay [8], 32.4 µM; in [9], 28.8 µM. Further, the TGI in assay [1] is 76.8 µM; in assay [2], above 100 µM; in assay [10] it was 77.3 µM; in [3], 66.6 µM; in [5], 74.5 µM; in assay [6], 86.1 µM. Besides, the figures for the TGI in assay [7], in assay [8] and in [9] were above 100 µM, 99.7 µM and above 100 µM, respectively.

Take `O=C(c1ccc2ccccc2c1O)N1CCCCC1`: the TGI in assay [1], in [2], in assay [10], in assay [3], in assay [4] and in [5] was above 100 µM throughout. Further, the TGI in assay [7], in assay [8] and in assay [9] was above 100 µM in each case.

For `CC1[C@@H]2[C@@H](C=C3C4CCC5Cc6nc7c(nc6C[C@@]5(C)C4C[C@H](O)[C@]32CO)CC2CCC3C4=C[C@H]5O[C@@]6(O[C@@](C)(CO)C[C@@H]6O)C(C)[C@@]5(O)[C@]4(C)[C@@H](O)CC3[C@]2(C)C7)O[C@]12CCC(C)(C)O2` (some centres undefined), the TGI was 0.496 µM in assay [2]; above 3.65 µM in assay [10]; 0.611 µM and > 3.65 µM in assay [3]; above 3.65 µM in assay [4]; above 3.65 µM in assay [5]; 0.961 µM and 0.108 µM in assay [6]. The TGI was above 3.65 µM in assay [7]; 0.158 µM and 0.286 µM in assay [9]. Besides, the GI50 is 0.0049 µM in assay [10]; 0.17 µM in assay [3]; 0.017 µM and 0.0071 µM in assay [4]; 0.00878 µM in [6]; above 3.65 µM in assay [7]; 0.117 µM in [9].

Turning to `O=[As](O)(O)c1ccc(NCc2ccccc2)cc1`, the TGI in assay [1], in [10], in assay [3], in [4], in assay [5] and in assay [6] was above 100 µM each time. Further, the TGI in assay [7], in assay [8] and in [9] was above 100 µM each time.

With `Cc1cc(C)nc(NC(N)=NCCc2ccccc2)n1`, the GI50 in assay [1] was 4.94 µM; in assay [2], 2.9 µM; in assay [3], 3.62 µM; in [4], 2.03 µM; in assay [5], 31 µM; in assay [6], 9.81 µM. Moreover, the GI50 in assay [7] is 3.69 µM; in assay [8], 17.6 µM; in assay [9] it was 5.54 µM. Also, the TGI in assay [1] is above 100 µM; in assay [2], 12.4 µM; in [3] it was above 100 µM; in assay [4] it was 44.3 µM; in [5], above 100 µM; in assay [6], above 100 µM. For the same compound, the figures for the TGI in assay [7], in assay [8] and in assay [9] were 34.8 µM, above 100 µM and 50.8 µM, respectively.

With `O=C(c1ccccc1)c1c(NCC(O)CN2CCCC2)n(Cc2ccccc2)c(=O)n(Cc2ccccc2)c1=O` (centres undefined), the GI50 in [1] is 22.3 µM; in assay [10] it was 21.6 µM; in assay [3] it was 15.8 µM; in assay [4], 15.7 µM; in assay [5], 19.5 µM; in assay [6], 29.7 µM. The values for the GI50 in assay [7], in assay [8] and in assay [9] were 18.5 µM, 19.3 µM and 18.8 µM, respectively. The TGI in [1] was determined as 54.7 µM; in assay [10], 52.8 µM; in assay [3], 31.7 µM; in assay [4] it was 29.4 µM; in assay [5], 55.3 µM; in [6], 82 µM. Also, the TGI in assay [7] was 36.2 µM; in assay [8], 41.6 µM; in assay [9] it was 40.2 µM.

As to `COc1cccc([C@H]2CC(=O)c3cc4c(cc3N2)OCO4)c1`, the GI50 is 0.0763 µM in [1]; 0.0336 µM in assay [3]; 0.273 µM in assay [4]; 0.036 µM in assay [5]; 13.7 µM in assay [6]; 0.223 µM in [9]. In addition, the TGI is above 100 µM in [1]; 1.25 µM in assay [3]; above 100 µM in assay [4]; above 100 µM in [8]; above 100 µM in assay [9].

For the compound `O=P([O-])(O)OP(=O)([O-])O.[NH-][C@H]1CCCC[C@@H]1[NH-].[OH-].[OH-].[Pt+4]`, the GI50 in assay [1] is 16.6 µM; in assay [10] it was 21.8 µM; in [3] it was above 100 µM; in assay [4], 33.2 µM; in assay [5] it was 22.7 µM; in assay [6], 26.3 µM. The GI50 is 22.7 µM in assay [7] and 19.1 µM in [9]. Moreover, the TGI in [1] was 42.1 µM; in [10], 60.4 µM; in assay [3] it was above 100 µM; in [4], above 100 µM; in assay [5] it was 78.1 µM; in assay [6], 63.2 µM. In addition, the TGI was 63.6 µM in assay [7] and 44 µM in assay [9].

With `COc1cc(-c2nn3c(/C=C4/C(=O)Nc5ccccc54)c(-c4ccc(C)cc4)nc3s2)cc(OC)c1OC`, the GI50 in assay [1] is 4.98 µM; in assay [2] it was above 100 µM; in [10], 4.75 µM; in assay [3], above 100 µM; in [5], 3.05 µM; in assay [6] it was above 100 µM. Moreover, the GI50 in assay [7] is 3.71 µM; in assay [8], 1.69 µM; in [9], 8.44 µM. In addition, the TGI in assay [1] was 23.7 µM; in [2], above 100 µM; in assay [10], above 100 µM; in assay [3], above 100 µM; in assay [5] it was above 100 µM; in assay [6], above 100 µM. The TGI in assay [7] is above 100 µM; in [8] it was 4.38 µM; in assay [9] it was above 100 µM.

For the compound `NS(=O)(=O)c1ccc(NC(=O)c2ccc(NC3=C(Cl)C(=O)N(Cc4ccccc4)C3=O)cc2)cc1`, the GI50 in assay [1] is 13.7 µM; in [10], 3 µM; in assay [3], 48.7 µM; in assay [4] it was 3.35 µM; in [5], 19.6 µM; in assay [6] it was 15.5 µM. For the same compound, the GI50 in assay [7] is 10.2 µM; in assay [8], above 100 µM; in assay [9], 79.3 µM. Further, the TGI in [1] was 26.6 µM; in [10], above 100 µM; in [3], above 100 µM; in assay [4], 39 µM; in assay [5], 43.3 µM; in assay [6] it was 33.1 µM. The TGI in [7], in [8] and in assay [9] was above 100 µM each time.

On to `COc1cc2c(/C=N\N=C(N)N)c(Cl)[nH]c2cc1C`, for which the GI50 was 11.1 µM in assay [1]; 17.5 µM in [10]; 7.17 µM in [3]; 11.4 µM in [4]; 23.3 µM in assay [5]; 15.2 µM in [6]. In addition, the results for the GI50 in assay [7], in assay [8] and in assay [9] were 15.4 µM, 15.7 µM and 27.5 µM, respectively. The TGI in assay [1] stood at 23.6 µM; in [10] it was 49.9 µM; in assay [3], 22.6 µM; in assay [4] it was 25.3 µM; in assay [5], 50.5 µM; in assay [6], 29 µM. The TGI amounted to 38.6 µM in [7], 29.5 µM in assay [8] and 84.6 µM in [9].

Turning to `CC(C)=CCN=C(N)N`, the TGI in assay [1], in [2], in assay [10], in assay [3], in [4] and in assay [5] was above 100 µM throughout. The TGI in assay [7], in assay [8] and in [9] was above 100 µM throughout.

As for `Nc1nc(CCC(=O)Nc2cccc(C(F)(F)F)c2)cc(-c2cccc3ccccc23)n1`, the TGI in assay [1], in assay [2], in assay [10], in [3], in assay [4] and in assay [6] was above 100 µM in each case. For the same compound, the TGI in [7], in [8] and in assay [9] was above 100 µM throughout.

Turning to `CC1=CCC[C@@]2(C)C(CC[C@@H]2C(C)/C=C/C(C)C)c2ccc(cc2C(=O)O)C[C@@H](O)CC1` (some centres undefined), the TGI in assay [1] was 18.7 µM; in [2], 31.2 µM; in assay [10], 27.9 µM; in [3] it was 24.8 µM; in assay [4], 19 µM; in assay [6] it was 30 µM. The figures for the TGI in assay [7], in assay [8] and in assay [9] were 33.3 µM, 25.1 µM and 29.2 µM, respectively.

`O=C1OC(=O)c2c1c(-c1ccccc1)cn2-c1ccc(Cl)cc1`: the TGI in assay [1], in [2], in assay [10], in assay [3], in [4] and in [6] was above 100 µM each time. The TGI in assay [7], in assay [8] and in assay [9] was above 100 µM throughout.

Regarding `COc1cc(C(=O)OCCCCCCCCCCC[P+](c2ccccc2)(c2ccccc2)c2ccccc2)ccc1O`, the GI50 in assay [1] was 1.46 µM; in assay [2] it was 0.282 µM; in assay [5], 2.43 µM; in assay [6] it was 1.59 µM; in assay [7], 0.345 µM; in assay [8], 1.65 µM. Moreover, in [9], the GI50 is 1.69 µM. For the same compound, the TGI in assay [1] turned out to be 2.99 µM; in assay [2], 0.734 µM; in assay [5] it was 6.52 µM; in assay [6] it was 3.25 µM; in assay [7], 1.53 µM; in [8], 4.15 µM. In [9], this compound came in with a TGI of 3.17 µM.

In the case of `COc1ccc(S(=O)(=O)NC(C)C(=O)O)cc1` (centres undefined), the TGI in assay [1], in [2], in [10], in assay [3], in assay [4] and in assay [6] was above 100 µM throughout. In addition, the TGI in assay [7], in [8] and in assay [9] was above 100 µM in each case.
